Each compound was assayed against T1, NS3-NS4 protease (Hepatitis C virus genotype 1a, UniProt P27958) (assay: NS3-NS4 protease assay / NS3 inhibition assay, Section D).
T1 construct: Recombinant E. coli or Baculovirus full-length NS3 was diluted to 3.33 μM with assay buffer; made in house; host or cells: E. coli or baculovirus (BV) system
Format: biochemical
Description: NS3-NS4 Protease Assay NS3 complex formation with NS4A-2.
Recombinant E. coli or Baculovirus full-length NS3 was diluted to 3.33 μM with assay buffer and transferred material to an eppendorf tube and place in water bath in 4° C. refrigerator. The appropriate amount of NS4A-2 to 8.3 mM in assay buffer was added to equal the volume of NS3 in step 2.1.1 (conversion factor −3.8 mg/272 μL assay buffer). The material was transferred to an eppendorf tube and place in water bath in 4° C. refrigerator.
After equilibration to 4° C., equal volumes of NS3 and NS4A-2 solutions were combined in an eppendorf tube, mix gently with a manual pipettor, and incubate mixture for 15 minutes in the 4° C. water bath. Final concentrations in the mixture are 1.67 μM NS3, 4.15 mM NS4A-2 (2485-fold molar excess NS4A-2).
After 15 minutes at 4° C., the NS3/NS4A-2 eppendorf tube was removed and placed in a room temperature water bath for 10 minutes. NS3/NS4A-2 was alliquoted at appropriate volumes and store at −80° C. (E. coli NS3 run at 2 nM in assay, aliquot at 25 μL. BV NS3 run at 3 nM in assay, aliquot at 30 μL).
Sample compounds were dissolved to 10 mM in DMSO then diluted to 2.5 mM (1:4) in DMSO.
The E. coli. NS3/NS4A-2 was diluted to 4 nM NS3 (1:417.5 of 1.67 μM stock−18 μL 1.67 μM stock+7497 μL assay buffer).
The BV NS3/NS4A-2 was diluted to 6 nM NS3 (1:278.3 of 1.67 μM stock−24 μL 1.67 μM stock+6655 μL assay buffer).
Using the manual multichannel pipettor, careful not to introduce bubbles into the plate, add 50 μL assay buffer to wells A01-H01 of a black Costar 96-well polypropylene storage plate.
Using the manual multichannel pipettor, careful not to introduce bubbles into the plate, add 50 μL of diluted NS3/NS4A-2 from step 2.2.6 to wells A02-H12 of plate in step 2.2.7.
Using the manual multichannel pipettor, careful not to introduce bubbles into the plate, transfer 25 μL of the wells in drug dilution plate in step 2.2.5 to corresponding wells in assay plate in step 2.2.8. Change tips on multichannel pipettor for each row of compounds transferred.
Using the manual multichannel pipettor, careful not to introduce bubbles into the plate, mix the wells from the assay plate in step 2.2.9 by aspirating and dispensing 35 μL of the 75 μL in each well five times. Change tips on multichannel pipettor for each row of wells mixed.
Cover plate with a polystyrene plate lid and pre-incubate the plate from step 2.2.10 containing NS3 protease and sample compounds 10 minutes at room temperature.
While plate from step 2.2.11 is pre-incubating, dilute RETS1 substrate in a 15 mL polypropylene centrifuge tube.
Dilute RETS1 substrate to 8 μM (1:80.75 of 646 μM stock−65 μL 646 μM stock+5184 μL assay buffer).
After the plate in step is done pre-incubating, and using the manual multichannel, add 25 μL of substrate to all wells on the plate. Quickly mix the plate as in step 2.2.10, mixing 65 μL of the 100 μL in the wells.
Read the plate in kinetic mode on the Molecular Devices SpectraMax Gemini XS plate reader. Reader settings: Read time: 30 minutes, Interval: 36 seconds, Reads: 51, Excitation k: 335 nm, Emission k: 495 nm, cutoff: 475 nm, Automix: off, Calibrate: once, PMT: high, Reads/well: 6, Vmax pts: 21 or 28/51 depending on length of linearity of reaction.
IC50s are determined using a four parameter curve fit equation, and converted to Ki's using the following Km's:
where Ki=IC50/(1+[S]/Km))

T1 sequence (P27958 1027-1657): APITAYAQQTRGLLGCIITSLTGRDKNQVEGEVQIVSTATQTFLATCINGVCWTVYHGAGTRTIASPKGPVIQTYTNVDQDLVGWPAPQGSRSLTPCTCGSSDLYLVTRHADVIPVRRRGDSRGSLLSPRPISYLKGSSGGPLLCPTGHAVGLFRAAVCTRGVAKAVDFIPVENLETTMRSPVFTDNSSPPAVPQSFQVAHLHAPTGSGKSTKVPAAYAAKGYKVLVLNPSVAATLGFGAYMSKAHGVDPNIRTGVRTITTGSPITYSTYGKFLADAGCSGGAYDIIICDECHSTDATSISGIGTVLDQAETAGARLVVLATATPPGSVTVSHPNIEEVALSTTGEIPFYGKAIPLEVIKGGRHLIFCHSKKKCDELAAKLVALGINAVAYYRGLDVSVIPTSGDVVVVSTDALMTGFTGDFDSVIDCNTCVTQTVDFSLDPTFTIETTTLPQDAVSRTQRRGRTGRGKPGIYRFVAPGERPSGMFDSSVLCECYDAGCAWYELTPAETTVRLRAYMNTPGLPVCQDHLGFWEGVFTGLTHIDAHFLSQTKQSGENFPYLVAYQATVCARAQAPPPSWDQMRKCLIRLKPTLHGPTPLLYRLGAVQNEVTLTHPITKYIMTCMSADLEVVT

| SMILES | IC50 |
| --- | --- |
| Cn1c(C(=O)N[C@@H]2C[C@H]3C(=O)N[C@]4(C(=O)NS(=O)(=O)C5CC5)C[C@H]4/C=C\CCCCC[C@H](NC(=O)OC(C)(C)C)C(=O)N3C2)cc2ccccc21 [Example 35] | < 100 nM |
| CC(C)(C)OC(=O)N[C@H]1CCCCC/C=C\[C@@H]2C[C@@]2(C(=O)NS(=O)(=O)C2CC2)NC(=O)[C@@H]2C[C@@H](NC(=O)c3cc4cc(OC(F)(F)F)ccc4[nH]3)CN2C1=O [Example 36] | < 100 nM |
| COc1cc2cc(C(=O)N[C@@H]3C[C@H]4C(=O)N[C@]5(C(=O)NS(=O)(=O)C6CC6)C[C@H]5/C=C\CCCCC[C@H](NC(=O)OC(C)(C)C)C(=O)N4C3)[nH]c2cc1OC [Example 37] | < 100 nM |
| CC(C)(C)OC(=O)N[C@H]1CCCCC/C=C\[C@@H]2C[C@@]2(C(=O)NS(=O)(=O)C2CC2)NC(=O)[C@@H]2C[C@@H](NC(=O)c3ccc4cc[nH]c4c3)CN2C1=O [Example 38] | < 100 nM |
| CC(C)(C)OC(=O)N[C@H]1CCCCC/C=C\[C@@H]2C[C@@]2(C(=O)NS(=O)(=O)C2CC2)NC(=O)[C@@H]2C[C@@H](NC(=O)c3cc4ccccc4o3)CN2C1=O [Example 39] | < 100 nM |
| CC(C)(C)OC(=O)N[C@H]1CCCCC/C=C\[C@@H]2C[C@@]2(C(=O)NS(=O)(=O)C2CC2)NC(=O)[C@@H]2C[C@@H](NC(=O)c3cc4cc(Cl)ccc4o3)CN2C1=O [Example 40] | < 100 nM |
| COc1ccc2oc(C(=O)N[C@@H]3C[C@H]4C(=O)N[C@]5(C(=O)NS(=O)(=O)C6CC6)C[C@H]5/C=C\CCCCC[C@H](NC(=O)OC(C)(C)C)C(=O)N4C3)cc2c1 [Example 41] | < 100 nM |
| COc1cccc2cc(C(=O)N[C@@H]3C[C@H]4C(=O)N[C@]5(C(=O)NS(=O)(=O)C6CC6)C[C@H]5/C=C\CCCCC[C@H](NC(=O)OC(C)(C)C)C(=O)N4C3)oc12 [Example 42] | < 100 nM |
| CC(C)(C)OC(=O)N[C@H]1CCCCC/C=C\[C@@H]2C[C@@]2(C(=O)NS(=O)(=O)C2CC2)NC(=O)[C@@H]2C[C@@H](NC(=O)c3cc4ccccc4s3)CN2C1=O [Example 43] | < 100 nM |
| CC(C)(C)OC(=O)N[C@H]1CCCCC/C=C\[C@@H]2C[C@@]2(C(=O)NS(=O)(=O)C2CC2)NC(=O)[C@@H]2C[C@@H](NC(=O)c3sc4cc(F)ccc4c3Cl)CN2C1=O [Example 44] | < 100 nM |
| CC(C)(C)OC(=O)N[C@H]1CCCCC/C=C\[C@@H]2C[C@@]2(C(=O)NS(=O)(=O)C2CC2)NC(=O)[C@@H]2C[C@@H](NC(=O)c3sc4cccc(Cl)c4c3Cl)CN2C1=O [Example 45] | < 100 nM |
| CC(C)(C)OC(=O)N[C@H]1CCCCC/C=C\[C@@H]2C[C@@]2(C(=O)NS(=O)(=O)C2CC2)NC(=O)[C@@H]2C[C@@H](NC(=O)c3nc4ccccc4[nH]3)CN2C1=O [Example 47] | < 100 nM |
| CC(C)(C)NC(=O)N[C@H]1CCCCC/C=C\[C@@H]2C[C@@]2(C(=O)NS(=O)(=O)C2CC2)NC(=O)[C@@H]2C[C@@H](NC(=O)c3sc4ccccc4c3Cl)CN2C1=O [Example 49] | < 100 nM |
| O=C(CCC(F)(F)F)N[C@H]1CCCCC/C=C\[C@@H]2C[C@@]2(C(=O)NS(=O)(=O)C2CC2)NC(=O)[C@@H]2C[C@@H](NC(=O)c3sc4ccccc4c3Cl)CN2C1=O [Example 50] | < 100 nM |
| CC(C)(C)CC(=O)N[C@H]1CCCCC/C=C\[C@@H]2C[C@@]2(C(=O)NS(=O)(=O)C2CC2)NC(=O)[C@@H]2C[C@@H](NC(=O)c3sc4ccccc4c3Cl)CN2C1=O [Example 51] | < 100 nM |
| O=C(N[C@H]1CCCCC/C=C\[C@@H]2C[C@@]2(C(=O)NS(=O)(=O)C2CC2)NC(=O)[C@@H]2C[C@@H](NC(=O)c3sc4ccccc4c3Cl)CN2C1=O)OCC1CC1 [Example 52] | < 100 nM |
| CC(CC(=O)N[C@H]1CCCCC/C=C\[C@@H]2C[C@@]2(C(=O)NS(=O)(=O)C2CC2)NC(=O)[C@@H]2C[C@@H](NC(=O)c3sc4ccccc4c3Cl)CN2C1=O)C(F)(F)F (stereo partly drawn) [Example 53] | < 100 nM |

| SMILES | IC50 |
| --- | --- |
| CC(C)(C)NC(=O)N[C@H]1CCCCC/C=C\[C@@H]2C[C@@]2(C(=O)NS(=O)(=O)C2CC2)NC(=O)[C@@H]2C[C@@H](NC(=O)c3cc4ccccc4s3)CN2C1=O [Example 54] | < 100 nM |
| CC(C)(C)NC(=O)N[C@H]1CCCCC/C=C\[C@@H]2C[C@@]2(C(=O)NS(=O)(=O)C2CC2)NC(=O)[C@@H]2C[C@@H](NC(=O)c3sc4cc(F)ccc4c3Cl)CN2C1=O [Example 55] | < 100 nM |
| COc1ccc(C(=O)N[C@@H]2C[C@H]3C(=O)N[C@]4(C(=O)NS(=O)(=O)C5CC5)C[C@H]4/C=C\CCCCC[C@H](NC(=O)OC4CCCC4)C(=O)N3C2)cc1 [Example 56] | < 100 nM |
| COc1ccc(C(=O)N[C@@H]2C[C@H]3C(=O)N[C@]4(C(=O)NS(=O)(=O)C5CC5)C[C@H]4/C=C\CCCCC[C@H](NC(=O)OC4CCCC4)C(=O)N3C2)cc1C(F)(F)F [Example 57] | < 100 nM |
| COc1ccc(C(=O)N[C@@H]2C[C@H]3C(=O)N[C@]4(C(=O)NS(=O)(=O)C5CC5)C[C@H]4/C=C\CCCCC[C@H](NC(=O)NC4CCCC4)C(=O)N3C2)cc1C(F)(F)F [Example 58] | < 100 nM |
| CC(C)(C)OC(=O)N[C@H]1CCCCC/C=C\[C@@H]2C[C@@]2(C(=O)O)NC(=O)[C@@H]2C[C@@H](NC(=O)c3cc4ccccc4s3)CN2C1=O [Example 59] | < 10000 nM |
| CC(C)(C)OC(=O)N[C@H]1CCCCC/C=C\[C@@H]2C[C@@]2(C(=O)O)NC(=O)[C@@H]2C[C@@H](NC(=O)c3ccccc3)CN2C1=O [Example 60] | < 10000 nM |
| COc1ccc(C(=O)N[C@@H]2C[C@H]3C(=O)N[C@]4(C(=O)O)C[C@H]4/C=C\CCCCC[C@H](NC(=O)OC(C)(C)C)C(=O)N3C2)cc1 [Example 61] | < 10000 nM |
| CC(C)(C)OC(=O)N[C@H]1CCCCC/C=C\[C@@H]2C[C@@]2(C(=O)O)NC(=O)[C@@H]2C[C@@H](NC(=O)c3ccc4ccccc4c3)CN2C1=O [Example 62] | < 1000 nM |
| CC(C)(C)OC(=O)N[C@H]1CCCCC/C=C\[C@@H]2C[C@@]2(C(=O)O)NC(=O)[C@@H]2C[C@@H](NC(=O)c3cc4ccccc4[nH]3)CN2C1=O [Example 63] | < 1000 nM |
| CC(C)(C)OC(=O)N[C@H]1CCCCC/C=C\[C@@H]2C[C@@]2(C(=O)O)NC(=O)[C@@H]2C[C@@H](NC(=O)c3sc4ccccc4c3Cl)CN2C1=O [Example 64] | < 1000 nM |
| CC(C)(C)OC(=O)N[C@H]1CCCCC/C=C\[C@@H]2C[C@@]2(C(=O)O)NC(=O)[C@@H]2C[C@@H](NC(=O)c3sc4cc(F)ccc4c3Cl)CN2C1=O [Example 65] | < 1000 nM |
| CC(C)(C)OC(=O)N[C@H]1CCCCC/C=C\[C@@H]2C[C@@]2(C(=O)O)NC(=O)[C@@H]2C[C@@H](NC(=O)c3cc4ccccc4o3)CN2C1=O [Example 66] | < 1000 nM |
| CC(C)(C)OC(=O)N[C@H]1CCCCC/C=C\[C@@H]2C[C@@]2(C(=O)O)NC(=O)[C@@H]2C[C@@H](NC(=O)c3ccc4cccnc4c3)CN2C1=O [Example 67] | < 10000 nM |
| CCc1ccc(C(=O)N[C@@H]2C[C@H]3C(=O)N[C@]4(C(=O)O)C[C@H]4/C=C\CCCCC[C@H](NC(=O)OC(C)(C)C)C(=O)N3C2)cc1 [Example 68] | < 10000 nM |
| COc1ccc(C(=O)N[C@@H]2C[C@H]3C(=O)N[C@]4(C(=O)O)C[C@H]4/C=C\CCCCC[C@H](NC(=O)OC(C)(C)C)C(=O)N3C2)cc1C(F)(F)F [Example 69] | < 10000 nM |

Reference: US7491794B2, “Macrocyclic compounds as inhibitors of viral replication” (Intermune, Inc., priority 2003, dated 2009)
